As a reminder, the IC50 is the midpoint of a concentration-inhibition curve. Read a high IC50 as lower potency.

Structures can show the parent of a compound that is named as a salt. Where two headings read alike, the source gives them in different places.

Experiment [1] has as its system male Slc:ICR mice. Put plainly: Action against pain-related behavior and micturition cycle in mice with cyclophosphamide (CP)-induced acute cystitis. The settings on record: Mus musculus, iv, 0.25 h, CP 300 mg/kg i.p., test substance 3 mg/kg intravenously 3 hours after CP, 15 minutes observation. The experiment is classed as in vivo. As to the method:
An action of a test substance against visceral pain and frequent urination associated with cystitis, which was induced by intraperitoneal administration (20 mL/kg) of CP (300 mg/kg) to 4 to 5-week-old male Slc:ICR mice (available from Japan SLC, Inc.), was investigated. This experiment was performed according to a method described in European Journal of Pharmacology, 676 (2012), pp. 75-80.
Three hours after the administration of CP, a test substance (1 mg/kg or 3 mg/kg) was intravenously administered, and observation by visual inspection and video recording were performed for 15 minutes immediately thereafter. In the observation by visual inspection, four pain-related behaviors (eye opening, rounded back, leg dragging, and behavior during urination) were scored, each rated on a scale of 0-10, according to the following criteria.
Eye opening (normal: 0 point, sometimes closed or half-open eyes: 5 points, completely closed: 10 points)
Rounded back (normal: 0 point, sometimes crouched: 5 points, crouched at almost all times: 10 points)
Leg dragging (normal: 0 point, leg dragging: 10 points)
Behavior during urination (normal: 0 point, shaking hip in micturition: 10 points)
In addition, the video was played back, and the frequency of licking behavior around the abdomen as a pain-related behavior was scored, rated on a scale of 0-10, according to the following criteria.
Licking behavior around the abdomen (0 to 3 times: 0 point, 4 times to 10 times: 5 points, 11 times or more: 10 points)
Furthermore, the video was played back, and the frequency of urination (urination marks) on a filter paper was counted and taken as an index for micturition cycle.
An average value of the pain-related behavior score of each group (total score of the five items: 50 points at maximum) and an average value of the frequency of urination (urination marks) on the filter paper were determined.
The strength of an analgesic action of the test substance against the CP-induced visceral pain was evaluated in terms of percent inhibition (%) of pain-related behavior score which is calculated as {(A−B)/A×100}, wherein A is an average value of the pain-related behavior score of a medium-administered group, and B is an average value of the pain-related behavior score of a test substance-administered group.
In addition, the strength of a frequent urination inhibitory action of the test substance against the CP-induced frequent urination was evaluated in terms of percent inhibition (%) of the frequency of urination which is calculated as {(C−D)/C×100}, wherein C is an average value of the frequency of urination of a medium-administered group, and D is an average value of the frequency of urination of a test substance-administered group.

Experiment [2] addresses T1, human mGluR5 (Homo sapiens, UniProt P41594).
T1 construct: expressed in transfected cells
In words: Experiment for receptor function of mGluR5 (Ca2+-dependent fluorescence, FLIPR, CHO-K1 cells stably expressing human mGluR5). The experiment is classed as cell-based. The note with it: L-glutamic acid 10 μM, Fluo-4 fluorescence. Put shortly:
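Fluo-4-loaded CHO-K1 cells pre-incubated 2 min with test substance, then stimulated with L-glutamic acid (final 10 μM) in HBSS, pH 7.4. FLIPR Ca2+ fluorescence normalized to glutamate alone (100%) and glutamate with 10 μM MPEP (0%); IC50 estimated by logistic fit.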

The mark [3] stands for this setting: read-out: Percent inhibition of pain-related behavior score (%).
[4] abbreviates: read-out: Percent inhibition of the frequency of urination (%).

T1 sequence (P41594 21-1212): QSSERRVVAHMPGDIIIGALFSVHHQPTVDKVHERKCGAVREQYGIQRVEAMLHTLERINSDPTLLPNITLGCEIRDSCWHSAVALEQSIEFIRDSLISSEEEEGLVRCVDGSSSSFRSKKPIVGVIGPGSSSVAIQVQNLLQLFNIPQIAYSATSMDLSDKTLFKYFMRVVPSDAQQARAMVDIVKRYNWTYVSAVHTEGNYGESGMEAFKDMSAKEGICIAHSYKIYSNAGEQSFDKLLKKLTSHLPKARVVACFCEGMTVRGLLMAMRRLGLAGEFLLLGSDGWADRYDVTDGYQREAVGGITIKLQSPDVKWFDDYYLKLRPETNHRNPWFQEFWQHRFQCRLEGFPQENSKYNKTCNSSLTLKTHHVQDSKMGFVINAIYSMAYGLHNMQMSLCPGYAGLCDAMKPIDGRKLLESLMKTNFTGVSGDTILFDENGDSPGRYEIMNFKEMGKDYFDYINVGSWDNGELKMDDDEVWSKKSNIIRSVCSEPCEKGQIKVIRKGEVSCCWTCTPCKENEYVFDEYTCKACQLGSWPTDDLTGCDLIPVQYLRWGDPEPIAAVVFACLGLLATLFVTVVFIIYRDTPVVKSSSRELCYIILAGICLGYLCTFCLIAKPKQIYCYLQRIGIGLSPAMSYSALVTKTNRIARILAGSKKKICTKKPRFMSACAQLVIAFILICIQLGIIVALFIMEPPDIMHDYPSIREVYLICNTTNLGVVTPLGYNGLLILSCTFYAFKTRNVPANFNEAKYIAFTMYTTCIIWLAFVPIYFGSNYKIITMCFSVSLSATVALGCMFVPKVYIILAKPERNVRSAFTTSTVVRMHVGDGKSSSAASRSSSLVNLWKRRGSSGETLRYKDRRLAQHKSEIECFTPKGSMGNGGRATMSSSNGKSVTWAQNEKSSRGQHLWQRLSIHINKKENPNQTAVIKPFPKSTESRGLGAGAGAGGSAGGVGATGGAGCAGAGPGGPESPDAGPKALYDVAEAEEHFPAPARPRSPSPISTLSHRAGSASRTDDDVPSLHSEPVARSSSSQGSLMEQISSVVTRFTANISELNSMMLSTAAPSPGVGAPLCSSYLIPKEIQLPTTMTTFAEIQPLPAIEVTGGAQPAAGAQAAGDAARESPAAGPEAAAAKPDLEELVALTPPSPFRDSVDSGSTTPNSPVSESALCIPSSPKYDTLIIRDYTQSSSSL

On to `Cc1cccc(COc2cc(-c3cnc(C)nc3)c3c(n2)CCCC3)n1` [Example 182, 2-[(6-Methylpyridin-2-yl)methoxy]-4-(2-methylpyrimidin-5-yl)-5,6,7,8-tetrahydroquinoline hydrochloride], for which the figures for the inhibition in vivo at 3 mg/kg in experiment [1] (setting [3]) and in experiment [1] (setting [4]) were 26% and 43.2%, respectively. Further, half-maximal inhibition in experiment [2] (IC50) was put at 123 nM.

In the case of `Cc1ncc(-c2cc(OCc3ccccn3)nc3c2CCC3)cn1` [Example 36, 4-(2-Methylpyrimidin-5-yl)-2-(pyridin-2-ylmethoxy)-6,7-dihydro-5H-cyclopenta[b]pyridine hydrochloride], the inhibition in vivo at 3 mg/kg was 40.4% in experiment [1] (setting [3]) and 31.3% in experiment [1] (setting [4]). In experiment [2], this compound came in with an IC50 of 71 nM.

Take `Cc1cccc(COc2cc(-c3cnc(C)nc3)c3c(n2)CCC3)n1` [Example 45, 2-[(6-Methylpyridin-2-yl)methoxy]-4-(2-methylpyrimidin-5-yl)-6,7-dihydro-5H-cyclopenta[b]pyridine hydrochloride]: the inhibition in vivo at 3 mg/kg in experiment [1] (setting [3]) was determined as 34.1%; in experiment [1] (setting [4]), 33.8%.

For the compound `Fc1ccc(F)c(COc2cc(-c3cncnc3)c3c(n2)CCC3)n1` [Example 255, 2-[(3,6-Difluoropyridin-2-yl)methoxy]-4-(pyrimidin-5-yl)-6,7-dihydro-5H-cyclopenta[b]pyridine], the inhibition in vivo at 3 mg/kg is 31% in experiment [1] (setting [3]) and 26.4% in experiment [1] (setting [4]).

Take `Cc1ncc(-c2cc(OCc3nc(F)ccc3F)nc3c2CCC3)cn1` [Example 43, 2-[(3,6-Difluoropyridin-2-yl)methoxy]-4-(2-methylpyrimidin-5-yl)-6,7-dihydro-5H-cyclopenta[b]pyridine]: the inhibition in vivo at 3 mg/kg in experiment [1] (setting [3]) turned out to be 31%; in experiment [1] (setting [4]), 41.9%.

Consider `OCc1cncc(-c2cc(OCc3ncccc3F)nc3c2CCCC3)n1` [Example 217, (6-{2-[(3-Fluoropyridin-2-yl)methoxy]-5,6,7,8-tetrahydroquinolin-4-yl}pyrazin-2-yl)methanol], for which the inhibition in vivo at 3 mg/kg is 38.3% in experiment [1] (setting [3]) and 40.4% in experiment [1] (setting [4]).

Regarding `N#Cc1ncc(-c2cc(OCc3cccc(F)n3)nc3c2CCC3)cn1` [Example 48, 5-{2-[(6-Fluoropyridin-2-yl)methoxy]-6,7-dihydro-5H-cyclopenta[b]pyridin-4-yl}pyrimidine-2-carbonitrile], in experiment [2], the IC50 is 72 nM.

For `N#Cc1ccc(-c2cc(OCc3ccccn3)nc3c2CCCC3)cn1` [Example 104, 5-[2-(Pyridin-2-ylmethoxy)-5,6,7,8-tetrahydroquinolin-4-yl]pyridine-2-carbonitrile hydrochloride], the IC50 in experiment [2] was determined as 51.7 nM.

As to `N#Cc1cccc(COc2cc(-c3cncc(CO)c3)c3c(n2)CCC3)c1` [Example 253, 3-[({4-[5-(Hydroxymethyl)pyridin-3-yl]-6,7-dihydro-5H-cyclopenta[b]pyridin-2-yl}oxy)methyl]benzonitrile], in experiment [2], it took 80 nM to reach half-maximal inhibition (IC50).

The compound `Cc1ncc(-c2cc(OCc3cccc(F)n3)nc3c2CCCC3)cn1` [Example 185, 2-[(6-Fluoropyridin-2-yl)methoxy]-4-(2-methylpyrimidin-5-yl)-5,6,7,8-tetrahydroquinoline] registered an IC50 in experiment [2] of 26 nM.

Compound `O=[N+]([O-])c1cccc(-c2cc(OCc3ccccn3)nc3c2CCC3)c1` [Example 63, 4-(3-Nitrophenyl)-2-(pyridin-2-ylmethoxy)-6,7-dihydro-5H-cyclopenta[b]pyridine] displayed an IC50 in experiment [2] of 59.9 nM.

`Cc1ncc(-c2cc(OCc3nc(C#N)co3)nc3c2CCC3)cn1` [Example 267, 2-({[4-(2-Methylpyrimidin-5-yl)-6,7-dihydro-5H-cyclopenta[b]pyridin-2-yl]oxy}methyl)-1,3-oxazole-4-carbonitrile]: the midpoint of inhibition in experiment [2], the IC50, lay at 55 nM.

As to `COCc1cccc(COc2cc(-c3cccnc3)c3c(n2)CCCC3)n1` [Example 89, 2-{[6-(Methoxymethyl)pyridin-2-yl]methoxy}-4-(pyridin-3-yl)-5,6,7,8-tetrahydroquinoline], the half-maximal inhibitory concentration (IC50) in experiment [2] was 41.4 nM.

The compound `Fc1ccnc(COc2cc(-c3cncnc3)c3c(n2)CCCC3)c1` [Example 146, 2-[(4-Fluoropyridin-2-yl)methoxy]-4-(pyrimidin-5-yl)-5,6,7,8-tetrahydroquinoline] registered a half-maximal inhibitory concentration (IC50) in experiment [2] of 176 nM.

`Nc1ncc(-c2cc(OCc3ccccn3)nc3c2CCCC3)cn1` [Example 169, 5-[2-(Pyridin-2-ylmethoxy)-5,6,7,8-tetrahydroquinolin-4-yl]pyrimidin-2-amine] registered an IC50 in experiment [2] of 13.9 nM.

The compound `Cc1ncc(-c2cc(OCc3cccc(F)n3)nc3c2CCC3)cn1` [Example 39, 2-[(6-Fluoropyridin-2-yl)methoxy]-4-(2-methylpyrimidin-5-yl)-6,7-dihydro-5H-cyclopenta[b]pyridine] returned an IC50 in experiment [2] of 122 nM.

With `C=C1CCc2c(-c3cncnc3)cc(OCc3ccccn3)nc21` [Example 237, 7-Methylidene-2-(pyridin-2-ylmethoxy)-4-(pyrimidin-5-yl)-6,7-dihydro-5H-cyclopenta[b]pyridine], inhibition in experiment [2] was half-maximal at 34.5 nM (IC50).

In experiment [2], `Cc1cc(COc2cc(-c3cnc(C)nc3)c3c(n2)CCC3)ccn1` [Example 262, 2-[(2-Methylpyridin-4-yl)methoxy]-4-(2-methylpyrimidin-5-yl)-6,7-dihydro-5H-cyclopenta[b]pyridine] had an IC50 of 82 nM.

The compound `FC(F)(F)c1cccc(COc2cc(-c3cncnc3)c3c(n2)CCCC3)n1` [Example 154, 4-(Pyrimidin-5-yl)-2-{[6-(trifluoromethyl)pyridin-2-yl]methoxy}-5,6,7,8-tetrahydroquinoline hydrochloride] showed an IC50 in experiment [2] of 280 nM.

`N#Cc1cccc(COc2cc(-c3cncc(CO)n3)c3c(n2)CCC3)c1` [Example 270, 3-[({4-[6-(Hydroxymethyl)pyrazin-2-yl]-6,7-dihydro-5H-cyclopenta[b]pyridin-2-yl}oxy)methyl]benzonitrile] had an IC50 in experiment [2] of 186 nM.

In turn, `Cc1ncc(-c2cc(OCc3ccccn3)nc3c2CCCC3)cn1` [Example 168, 4-(2-Methylpyrimidin-5-yl)-2-(pyridin-2-ylmethoxy)-5,6,7,8-tetrahydroquinoline] gave a concentration for half-maximal inhibition (IC50) in experiment [2] of 153 nM.

In experiment [2], `CN(C)C(=O)c1cncc(-c2cc(OCc3ccccn3)nc3c2CCCC3)c1` [Example 120, N,N-Dimethyl-5-[2-(pyridin-2-ylmethoxy)-5,6,7,8-tetrahydroquinolin-4-yl]pyridine-3-carboxamide hydrochloride] displayed an IC50 of 206 nM.

As to `Fc1ccc(COc2cc(-c3cncnc3)c3c(n2)CCC3)c(F)c1` [Example 18, 2-[(2,4-Difluorobenzyl)oxy]-4-(pyrimidin-5-yl)-6,7-dihydro-5H-cyclopenta[b]pyridine], the IC50 in experiment [2] turned out to be 105 nM.

The compound `C=Cc1cccc(COc2cc(-c3cncnc3)c3c(n2)CCCC3)n1` [Example 161, 2-[(6-Ethenylpyridin-2-yl)methoxy]-4-(pyrimidin-5-yl)-5,6,7,8-tetrahydroquinoline] had an IC50 in experiment [2] of 359 nM.

The compound `Clc1nccnc1-c1cc(OCc2ccccn2)nc2c1CCCC2` [Example 197, 4-(3-Chloropyrazin-2-yl)-2-(pyridin-2-ylmethoxy)-5,6,7,8-tetrahydroquinoline hydrochloride] registered an IC50 in experiment [2] of 93.7 nM.

For `N#Cc1ccc(COc2cc(-c3cnc(N)nc3)c3c(n2)CCC3)cc1` [Example 264, 4-({[4-(2-Aminopyrimidin-5-yl)-6,7-dihydro-5H-cyclopenta[b]pyridin-2-yl]oxy}methyl)benzonitrile], in experiment [2], the IC50 was 126 nM.

In experiment [2], `CNc1cccc(COc2cc(-c3cncnc3)c3c(n2)CCCC3)n1` [Example 158, N-Methyl-6-({[4-(pyrimidin-5-yl)-5,6,7,8-tetrahydroquinolin-2-yl]oxy}methyl)pyridin-2-amine] had a half-maximal inhibitory concentration (IC50) of 253 nM.

For the compound `c1ccc(COc2cc(-c3cncs3)c3c(n2)CCCC3)nc1` [Example 224, 2-(Pyridin-2-ylmethoxy)-4-(1,3-thiazol-5-yl)-5,6,7,8-tetrahydroquinoline], in experiment [2], the half-maximal inhibitory concentration (IC50) came out at 25.6 nM.

These data come from patent publication US20150225404A1, “PYRIDINE DERIVATIVE AND MEDICINE” (NIPPON SHINYAKU CO., LTD., priority 2012, published 2015).
